Reference: US5707998A, “Nitrogen-containing fused-heterocycle compounds” (Eisai Co., Ltd., priority 1993, dated 1998)
Counter-ions that a name gives are not always drawn.

These molecules were tested against T1, cGMP-PDE prepared from porcine aorta (Sus scrofa, UniProt A0A287B475) (assay: Inhibitory Activity Against cGMP-PDE Prepared from Porcine Aorta). Conditions: CaM-independent cGMP-PDE fraction; 1 μM cGMP substrate; 1 mM EGTA; DMSO 4% or below.
T1 construct: Porcine aorta was cut into small pieces; from tissue; host or cells: porcine aorta, 100,000 x g supernatant, DEAE-Toyopearl 650S fraction
Assay type: biochemical
Description: Inhibitory Activity Against cGMP-PDE Prepared from Porcine Aorta The enzymatic activity of cGMP-PDE prepared from porcine aorta was determined by the method of Thompson et al. This determination was conducted in the presence of 1 mM EGTA by the use of 1 μM cGMP as the substrate. The compound of the present invention was added to the reaction system in a state dissolved in DMSO to determine its inhibitory activity. The final DMSO concentration of the reaction system was adjusted to 4% or below. The above cGMP-PDE was prepared as follows: Porcine aorta was cut into small pieces, followed by the addition of 10 times (by volume) as much buffer A [comprising Tris/HCl (20 mM), magnesium acetate (2 mM), dithiothreitol (1 mM), EDTA (5 mM), aprotinin (1400TIU/l),leupeptin (10 mg/l), benzamidine (1 mM) and PMSF (0.2 mM) and having a pH of 7.5]. The resulting mixture was homogenated and centrifuged at 100,000×g for one hour. The obtained supernatant was adsorbed on a column packed with DEAE-Toyopearl 650S (Tosoh, Tokyo, Japan). The resulting column was washed with buffer B [comprising Tris/HCl (50 mM), EGTA (0.1 mM), magnesium acetate (2 mM), dithiothreitol (1 mM) and PMSF (0.2 mM) and having a pH of 7.5] and thereafter subjected to gradient elution with 0.05 to 0.4M sodium chloride to give a CaM-independent cGMP-PDE fraction. The compounds of the present invention were examined for cGMP-PDE inhibitory activity by the above method and the results are given in Table 1.
For `Clc1nc(NCc2ccc3c(c2)OCO3)c2cc(-n3cccn3)ccc2n1` [Example 1, 2-Chloro-4-(3,4-methylenedioxybenzyl)amino-6-(pyrazol-1-yl)quinazoline], the IC50 was 9.9 nM. `CN(C)c1ccc2nc(Cl)nc(NCc3ccc4c(c3)OCO4)c2c1` [Example 2, 2-Chloro-4-(3,4-methylenedioxybenzyl)amino-6-dimethylaminoquinazoline] showed an IC50 of 120 nM. For `O=[N+]([O-])c1ccc2nc(Cl)nc(NCc3ccc4c(c3)OCO4)c2c1` [Example 3, 2-Chloro-4-(3,4-methylenedioxybenzyl)amino-6-nitroquinazoline], the IC50 was 5.27 nM. `Clc1nc(NCc2ccc3c(c2)OCO3)c2cc(N3CCCCC3)ccc2n1` [Example 4, 2-Chloro-4-(3,4-methylenedioxybenzyl)amino-6-piperidinoquinazoline] was tested, and the IC50 was 1220 nM. With `Clc1nc(NCc2ccc3c(c2)OCO3)c2cc(-n3ccnc3Cl)ccc2n1` [Example 5, 2-Chloro-4-(3,4-methylenedioxybenzyl)amino-6-(2-chloroimidazol-1-yl)quinazoline] the IC50 was 33.4 nM. `CCOC(=O)C1CCN(c2nc(NCc3ccc4c(c3)OCO4)c3cc(-n4cccn4)ccc3n2)CC1` [Example 6, 2-(4-Ethoxycarbonylpiperidino)-4-(3,4-methylenedioxybenzyl)amino-6-(pyrazol-1-yl)quinazoline hydrochloride] gave an IC50 of 8.09 nM. With `CCOC(=O)C1CCN(c2nc(NCc3ccc4c(c3)OCO4)c3cc(N(C)C)ccc3n2)CC1` [Example 7, 2-(4-Ethoxycarbonylpiperidino)-4-(3,4-methylenedioxybenzyl)amino-6-dimethylaminoquinazoline] the IC50 was 148 nM. With `CCOC(=O)C1CCN(c2nc(NCc3ccc4c(c3)OCO4)c3cc([N+](=O)[O-])ccc3n2)CC1` [Example 8, 2-(4-Ethoxycarbonylpiperidino)-4-(3,4-methylenedioxybenzyl)amino-6-dimethylnitroquinazoline] the IC50 was 3.5 nM. Work on `O=C(O)C1CCN(c2nc(NCc3ccc4c(c3)OCO4)c3cc(-n4cccn4)ccc3n2)CC1` [Example 9, 2-(4-Carboxypiperidino)-4-(3,4-methylenedioxybenzyl)amino-6-(pyrazol-1-yl)quinazoline] yielded an IC50 of 1.48 nM. `CN(C)c1ccc2nc(N3CCC(C(=O)O)CC3)nc(NCc3ccc4c(c3)OCO4)c2c1` [Example 10, 2-(4-Carboxypiperidino)-4-(3,4-methylenedioxybenzyl)amino-6-dimethylaminoquinazoline] was tested, and the IC50 was 18.7 nM. Molecule `O=C(O)C1CCN(c2nc(NCc3ccc4c(c3)OCO4)c3cc([N+](=O)[O-])ccc3n2)CC1` [Example 11, 2-(4-Carboxypiperidino)-4-(3,4-methylenedioxybenzyl)amino-6-nitroquinazolin] has an IC50 of 0.76 nM. Work on `CCOC(=O)C1CCN(c2nc(NCc3ccc4c(c3)OCO4)c3cc(N)ccc3n2)CC1` [Example 12, 2-(4-Ethoxycarbonylpiperidino)-4-(3,4-methylenedioxybenzyl)amino-6-aminoquinazoline dihydrochloride] yielded an IC50 of 1130 nM. With `O=C(O)C1CCN(c2nc(NCc3ccc4c(c3)OCO4)c3cc(-c4nnn[nH]4)ccc3n2)CC1` [Example 13] the IC50 was 7.29 nM. In the case of `c1cn(-c2ccc3ncnc(NCc4ccc5c(c4)OCO5)c3c2)cn1` [Example 14, 4-(3,4-Methylenedioxybenzyl)amino-6-(imidazol-1-yl)quinazoline], the IC50 is reported as 720 nM. With `c1nc(NCc2ccc3c(c2)OCO3)c2cc(-n3cncn3)ccc2n1` [Example 15, 4-(3,4-Methylenedioxybenzyl)amino-6-(1,2,4-triazol-1-yl)quinazoline] the IC50 was 360 nM. With `COc1ccc(CNc2ncnc3ccc(-n4cnc(C)c4)cc23)cc1Cl` [Example 17, 4-(3-Chloro-4-methoxybenzyl)amino-6-(4-methylimidazol-1-yl)quinazoline] the IC50 was 403 nM.
